Assay results taken from PubChem BioAssay (NCI).
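Exposure lasted 48 hours, with cells grown in 96-well plates and compounds tested at five concentrations. TGI is the concentration that stops growth completely.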

Legend:
Assay in all cases: growth of human tumour cells (NCI), 48 h
[1] = tested on: HOP-62 NSCLC
[2] = tested on: EKVX NSCLC
[3] = tested on: M14 melanoma
[4] = tested on: OVCAR-3 ovarian
[5] = tested on: DU-145 prostate
[6] = tested on: OVCAR-8 ovarian
[7] = tested on: SF-268 CNS
[8] = tested on: HCC-2998 colon
[9] = tested on: K-562 leukemia
[10] = tested on: CCRF-CEM leukemia
[11] = tested on: SNB-75 CNS
[12] = tested on: HOP-92 NSCLC
[13] = tested on: HS 578T breast
[14] = tested on: A549 NSCLC
[15] = tested on: HT29 colon
[16] = tested on: MOLT-4 leukemia
[17] = tested on: 786-0 renal
[18] = tested on: SF-295 CNS

In the case of `CCOC(=O)C(NC(=O)OCc1ccccc1)C(=O)O` (stereo not drawn), the TGI [1] is reported as > 100 µM, the TGI [2] is reported as > 100 µM and the TGI [3] is reported as > 100 µM. For the same molecule, the TGI [4] was > 100 µM, the TGI [5] was > 100 µM and the TGI [6] was > 100 µM. The TGI [7] was > 100 µM, the TGI [8] was > 100 µM and the TGI [9] was > 100 µM. The TGI [10] was > 100 µM, the TGI [11] was > 100 µM and the TGI [12] was > 100 µM. The TGI [13] was > 100 µM, the TGI [14] was > 100 µM and the TGI [15] was > 100 µM. The TGI [16] was > 100 µM, the TGI [17] was > 100 µM and the TGI [18] was > 100 µM.

With `COc1ccc(C2c3cc4c(cc3OC(NNc3ccccc3)C2C)OCO4)cc1` (stereo not drawn) the TGI [1] was 20.2 µM, the TGI [2] was 24.3 µM and the TGI [3] was > 100 µM. For the same molecule, the TGI [4] was 39.8 µM, the TGI [5] was > 100 µM and the TGI [6] was 63.5 µM. For the same molecule, the TGI [7] was > 100 µM, the TGI [8] was 4.79 µM and the TGI [9] was > 100 µM. For the same molecule, the TGI [10] was 40.5 µM, the TGI [11] was > 100 µM and the TGI [12] was 67.9 µM. The TGI [13] was > 100 µM, the TGI [14] was > 100 µM and the TGI [15] was 51.7 µM. The TGI [16] was > 100 µM, the TGI [17] was 51.8 µM and the TGI [18] was > 100 µM.

In the case of `O=C(CNc1ccccn1)Nn1cnc2ccc(S(=O)(=O)Nc3ccccn3)cc2c1=O`, the TGI [1] is reported as > 100 µM, the TGI [2] is reported as > 100 µM and the TGI [3] is reported as > 100 µM. The TGI [4] was > 100 µM, the TGI [5] was > 100 µM and the TGI [6] was > 100 µM. For the same molecule, the TGI [7] was > 100 µM, the TGI [8] was > 100 µM and the TGI [9] was > 100 µM. The TGI [10] was > 100 µM, the TGI [11] was > 100 µM and the TGI [12] was > 100 µM. For the same molecule, the TGI [13] was > 100 µM, the TGI [14] was > 100 µM and the TGI [15] was > 100 µM. For the same molecule, the TGI [16] was > 100 µM, the TGI [17] was > 100 µM and the TGI [18] was > 100 µM.

In the case of `COC(=O)c1ccc2c(c1)CC1(C2)Cc2cc3c(cc2C1)CCC3`, the TGI [1] is reported as > 100 µM, the TGI [2] is reported as > 100 µM and the TGI [3] is reported as > 100 µM. For the same molecule, the TGI [4] was > 100 µM, the TGI [5] was > 100 µM and the TGI [6] was > 100 µM. For the same molecule, the TGI [7] was > 100 µM, the TGI [8] was > 100 µM and the TGI [9] was > 100 µM. The TGI [10] was > 100 µM, the TGI [11] was > 100 µM and the TGI [12] was > 100 µM. The TGI [13] was > 100 µM, the TGI [14] was > 100 µM and the TGI [15] was > 100 µM. For the same molecule, the TGI [16] was > 100 µM, the TGI [17] was > 100 µM and the TGI [18] was > 100 µM.

For `CC1=NN=C(C)C1N=Nc1ccc2nc(C)[nH]c2c1`, the TGI [1] was > 100 µM, the TGI [2] was > 71.3 µM and the TGI [3] was > 100 µM. For the same molecule, the TGI [4] was > 73.6 µM, the TGI [5] was > 100 µM and the TGI [6] was > 100 µM. The TGI [7] was > 83.1 µM, the TGI [8] was > 100 µM and the TGI [9] was > 100 µM. The TGI [10] was > 100 µM, the TGI [11] was 64.4 µM and the TGI [12] was 65.4 µM. The TGI [13] was 29.4 µM, the TGI [14] was > 100 µM and the TGI [15] was > 100 µM. The TGI [16] was > 85.9 µM, the TGI [17] was > 100 µM and the TGI [18] was > 75.1 µM.

`CC(C)OC(=O)c1ccc(NCc2cc(O)ccc2O)cc1` gave a TGI [1] of 31.9 µM, a TGI [2] of 17.5 µM and a TGI [3] of 22.4 µM. The TGI [4] was 4.71 µM, the TGI [5] was 15.4 µM and the TGI [6] was > 21.9 µM. It also gave a TGI [7] of 28.4 µM, a TGI [8] of 28.6 µM and a TGI [9] of 6.98 µM. The TGI [10] was > 100 µM, the TGI [11] was 18.6 µM and the TGI [12] was 5.03 µM. The TGI [13] was > 29.6 µM, the TGI [14] was > 67.8 µM and the TGI [15] was 31.5 µM. It also gave a TGI [16] of 10.3 µM, a TGI [17] of 10.3 µM and a TGI [18] of 20.4 µM.

With `Clc1ccc(Cl)c(N=Nc2cc3c4c(c2)CCN4CCC3)c1` the TGI [1] was > 10 µM, the TGI [2] was > 10 µM and the TGI [3] was > 10 µM. For the same molecule, the TGI [4] was > 10 µM, the TGI [5] was > 10 µM and the TGI [6] was > 10 µM. For the same molecule, the TGI [7] was > 10 µM, the TGI [8] was > 10 µM and the TGI [9] was > 10 µM. For the same molecule, the TGI [10] was > 10 µM, the TGI [11] was > 10 µM and the TGI [12] was > 10 µM. The TGI [13] was > 10 µM, the TGI [14] was > 10 µM and the TGI [15] was > 10 µM. The TGI [16] was > 10 µM, the TGI [17] was > 10 µM and the TGI [18] was > 10 µM.

With `C[C@@H](CC(O)C(O)C(C)(C)O)C1CCC23CC12CCC1[C@@]2(C)CCC(O)C(C)(C)C2CC(OC2OC(CO)C(O)C(O)C2O)[C@]13C` (stereo partly drawn) the TGI [1] was > 10 µM, the TGI [2] was > 10 µM and the TGI [3] was > 10 µM. For the same molecule, the TGI [4] was > 10 µM, the TGI [5] was > 10 µM and the TGI [6] was > 10 µM. The TGI [7] was > 10 µM, the TGI [8] was > 10 µM and the TGI [9] was > 10 µM. The TGI [10] was > 10 µM, the TGI [11] was > 10 µM and the TGI [12] was > 10 µM. For the same molecule, the TGI [13] was > 10 µM, the TGI [14] was > 10 µM and the TGI [15] was > 10 µM. For the same molecule, the TGI [16] was > 10 µM, the TGI [17] was > 10 µM and the TGI [18] was > 10 µM.

`CC1=NN(c2nc(N)nc(NS(=O)(=O)c3cc(C)c(Cl)cc3S)n2)C(C)(C)C1` was tested, and the TGI [1] was > 10 µM, the TGI [2] was > 10 µM and the TGI [3] was > 10 µM. The TGI [4] was > 10 µM, the TGI [5] was > 10 µM and the TGI [6] was > 10 µM. For the same molecule, the TGI [7] was > 10 µM, the TGI [8] was > 10 µM and the TGI [9] was > 10 µM. The TGI [10] was > 10 µM, the TGI [11] was > 10 µM and the TGI [12] was > 10 µM. For the same molecule, the TGI [13] was > 10 µM, the TGI [14] was > 10 µM and the TGI [15] was > 10 µM. The TGI [16] was > 10 µM, the TGI [17] was > 10 µM and the TGI [18] was > 10 µM.

`NS(=O)(=O)c1ccc(NC(=O)N/N=C/c2ccccc2O)cc1` was tested, and the TGI [1] was > 100 µM, the TGI [2] was > 100 µM and the TGI [3] was > 100 µM. For the same molecule, the TGI [4] was > 100 µM, the TGI [5] was > 100 µM and the TGI [6] was > 100 µM. For the same molecule, the TGI [7] was > 100 µM, the TGI [8] was > 100 µM and the TGI [9] was > 100 µM. The TGI [10] was > 100 µM, the TGI [11] was > 100 µM and the TGI [12] was > 100 µM. The TGI [13] was > 100 µM, the TGI [14] was > 100 µM and the TGI [15] was > 100 µM. The TGI [16] was > 100 µM, the TGI [17] was > 100 µM and the TGI [18] was > 100 µM.

In the case of `O=C1N/C(=N\N=C\c2ccccc2)C(c2ccccc2)O1` (stereo not drawn), the TGI [1] is reported as > 100 µM, the TGI [2] is reported as > 100 µM and the TGI [3] is reported as > 100 µM. The TGI [4] was > 100 µM, the TGI [5] was > 100 µM and the TGI [6] was > 100 µM. The TGI [7] was > 100 µM, the TGI [8] was > 100 µM and the TGI [9] was > 100 µM. The TGI [10] was 49.4 µM, the TGI [11] was 0.0124 µM and the TGI [12] was > 100 µM. The TGI [13] was > 100 µM, the TGI [14] was > 100 µM and the TGI [15] was > 100 µM. The TGI [16] was > 100 µM, the TGI [17] was > 100 µM and the TGI [18] was > 100 µM.
